Reference: US7897846B2, “Maize event DP-098140-6 and compositions and methods for the identification and/or detection thereof” (Pioneer Hi-Bred Int'l, Inc., priority 2006, dated 2011)
Read-outs that look alike come from different tables or passages of the source.

Experiments:
[1] = system: DP-098140-6 maize; experiment: Greenhouse herbicide tolerance, visual herbicide injury rating, two generations; type: in vivo, Zea mays; details: applied at V4
Procedure: (§1) The objective of this study was to evaluate the herbicide tolerance and protein expression in maize containing the event DP-098140-6.
(§2) Plants were grown in a greenhouse using a randomized complete block design containing four blocks. Each block consisted of twenty-four flats. Flats representing entries 1-12 (segregating 1:1) contained approximately fifteen plants per entry, while flats representing entries 13-24 (non-segregating) contained approximately ten plants per entry. Trait confirmation for GLYAT4621 was conducted for test and control entries at the V2 growth stage using lateral flow strip tests specific for the GLYAT protein. Plants with positive trait confirmation results (expressing GLYAT4621) were used for test entries and plants with negative trait confirmation results (not expressing GLYAT4621) were used as the control entries. Any remaining negative segregants not used for controls were then removed and remaining positive plants were thinned to 5 plants per entry within each block (treatment). At the V4 growth stage, a herbicide treatment containing glyphosate (1.46 L/ha or 20 oz/acre)+nonionic surfactant (0.25% vol./vol.)+ammonium sulfate (3.4 kg/ha) was applied to entries 1, 9, 13, and 21; herbicides containing thifensulfuron (3.5 g/ha or 0.5 oz/acre) and tribenuron (3.5 g/ha or 0.5 oz/acre) each containing nonionic surfactant (0.25% vol./vol.)+ammonium sulfate (3.4 kg/ha) were applied to entries 2, 10, 14 and 22; and a tank mixture of herbicides containing glyphosate, thifensulfuron and tribenuron was applied to entries 3, 11, 15, and 23 (Table 15).
(§3) Herbicide injury was evaluated visually at 14 and 21 days after herbicide application by estimating herbicide injury percentage, where “0” represented no visible injury and “100” represented complete plant death. The injury rating took into account all symptoms of herbicide injury when compared to the untreated entry for the same maize line. Injury symptoms included discoloration, leaf speckling, and wilting. The untreated entries for each maize line were rated as 0% injury and the herbicide treated entries of the same maize line were rated by comparing them to this untreated entry. Photographs were taken at 21 days following herbicide application to record herbicide injury. In order to further characterize tolerance to ALS-inhibiting herbicides, a characteristic of the zm-hra gene in DP-098140-6 maize, plant heights were measured for all entries at 14 and 21 days post herbicide treatment. Plant height was measured in cm from the soil surface to the tip of the highest leaf when extended by hand.
(§4) Means, standard error and P-values were calculated for plant height data. Means were calculated for herbicide injury scores. Means, ranges and standard deviations of protein expression data were calculated for each protein expressed in leaf and seed tissues.

[2] = system: near isoline control maize; experiment: as above; type: in vivo, Zea mays; details: for Average Herbicide Injury Rating: Control maize, 0-100 scale, applied at V4
Procedure: as §1, §2, §3, §4

[3] = system: DP-098140-6 maize; type: in vivo, Zea mays; details: 98140 maize
Procedure: as §2, §3, §4

[4] = system: near isoline control maize; type: in vivo, Zea mays
Procedure: as §2, §3, §4

[5] = GLYAT4621 sandwich ELISA, leaf tissue at V5 stage (pg/μg total extractable protein); design: species or system Zea mays; details: DP-098140-6 maize leaf tissue, V5 growth stage, greenhouse; 20 plants
Procedure: Expression of the GLYAT4621 and Zm-HRA proteins has been evaluated on the leaf tissue collected at the V5 stage of growth from plants cultivated in greenhouses. For each sample, four fresh leaf punches were collected and ground in sample extraction buffer using a GenoGrinder (Spex Certiprep). Total Extractable Protein (TEP) was determined using the Bio-Rad Protein assay, which is based on the Bradford dye-binding procedure. Sample extracts were diluted in sample extraction buffer for ELISA analysis.
The GLYAT4621 and ZM-HRA ELISA's utilize a “sandwich” format for the quantification of the specific target protein in plant tissue extracts. […] The reaction is stopped with Sulfuric acid and the optical density of each well is determined using a Molecular Devices plate reader with a wavelength setting of 450 nm-650 nm. […] The mean concentration from the duplicate wells is expressed as pg target protein/μg of total extractable protein (TEP). The sample lower limit of quantification (LLOQ) was 10 pg GLYAT4621 protein/μg TEP and the upper detection limit was 2000 pg GLYAT4621 protein/μg TEP. The sample lower limit of quantification was 20 pg ZM-HRA protein/μg TEP and the upper detection limit was 5000 pg ZM-HRA protein/μg TEP.

**Q.** Which results are given for `O=C(O)CNCP(=O)(O)O` [Glyphosate, glyphosate]?
**A.** Average Herbicide Injury Rating ([1]; Generation 1, 14 days post-treatment, 0 = no visible injury, 100 = complete plant death): 0; Average Herbicide Injury Rating ([1]; Generation 1, 21 days post-treatment, 0-100 scale): 0; Average Herbicide Injury Rating ([1]; Generation 2, 14 days post-treatment, 0-100 scale): 0; Average Herbicide Injury Rating ([1]; Generation 2, 21 days post-treatment, 0-100 scale): 0; Average Herbicide Injury Rating ([2]; Generation 1, 14 days post-treatment): 100; Average Herbicide Injury Rating ([2]; Generation 1, 21 days post-treatment): 100; Average Herbicide Injury Rating ([2]; Generation 2, 14 days post-treatment): 100; Average Herbicide Injury Rating ([2]; Generation 2, 21 days post-treatment): 100; injury ([2]; sprayed control maize, both generations): 100%; Plant height, Least Square Means ([3]; Generation 1, 14 days following treatment): 103 cm; Plant height, Least Square Means ([3]; Generation 1, 21 days following treatment): 120 cm; Plant height, Least Square Means ([3]; Generation 2, 14 days following treatment): 101 cm; Plant height, Least Square Means ([3]; Generation 2, 21 days following treatment): 115 cm; Plant height, Least Square Means ([4]; Generation 1, 14 days following treatment, 0 cm = visible plant that has died due to herbicide treatment): 0.00 cm; Plant height, Least Square Means ([4]; Generation 1, 21 days following treatment, 0 cm = visible plant that has died due to herbicide treatment): 0.00 cm; Plant height, Least Square Means ([4]; Generation 2, 14 days following treatment, 0 cm = plant died due to herbicide): 0.00 cm; Plant height, Least Square Means ([4]; Generation 2, 21 days following treatment, 0 cm = plant died due to herbicide): 0.00 cm

B1: GLYAT4621: glyphosate acetyltransferase protein encoded by the glyat4621 gene, expressed in DP-098140-6 maize (protein)
chain: MAIEVKPINAEDTYDLRHRVLRPNQPIEACMFESDLTRSAFHLGGFYGGKLISVASFHQAEHSELQGKKQYQLRGVATLEGYREQKAGSSLVKHAEEILRKRGADMIWCNARTSASGYYRKLGFSEQGEVFDTPPVGPHILMYKR
modifications: GAT4621 probe
notes: glyphosate acetyltransferase protein encoded by the glyat4621 gene, expressed in DP-098140-6 maize
**Q.** With B1 as the molecule, how does the “Expression level of GLYAT4621 protein, Mean” value [5] read?
**A.** The value was 571.7 pg/μg TEP.
